Patent publication US7879872B2, “Compositions comprising multiple bioactive agents, and methods of using the same” (Affinium Pharmaceuticals, Inc., priority 2003, dated 2011)
Marks after values point to notes of the source that are not given here.

Key:
[1] = tested on: S. pneumoniae 22425, a penicillin and macrolide resistant clinical isolate; experiment: Combination time-kill studies; format: cell-based; details: for effect of compound G on the bactericidal activity (kill kinetics, kill extent) of the antibiotic: combination with compound G at 0.03 μg/ml and 1 μg/ml, S. pneumoniae
Experimental: Combination time-kill studies were performed as follows. Bacterial inocula were prepared as for MIC determination according to CLSI guidelines. Log phase cells (˜10^6 CFU/ml) were inoculated into 24 well plates and incubated with the indicated concentrations of compound G and commercial antibiotics for 24 hours at 35° C. At indicated time points samples were removed for determination of viable CFU counts. Results are plotted as log CFU/ml vs. time.

S. pneumoniae 22257 = experiment: Combination Time-kill kinetics; format: cell-based; details: antibiotic alone at 4 × MIC (Azithromycin 0.12 ug/ml, Cefuroxime 8 ug/ml)
Experimental: (§1) As used herein, “synergy” refers to the in vitro effect of administration of a combination of an antibacterial agent such as a Fab I inhibiter, and antiinfective agent such that (1) the fractional inhibitory concentration (FIC) is less than or equal to 0.5 in an FIC assay described herein; or (2) there is at least a 100-fold (2 log10) increase in killing at 24 hours for the combination as compared with the bioactive agent alone in a time kill curve assay as described herein. An FIC of ≦0.5 is evidence of synergy. An additive response has an FIC value of >0.5 and less than or equal to 1, while an indifferent response has an FIC value of >1 and ≦2. An additive effect may still indicate that the combination of bioactive agent and cationic peptide are therapeutically useful.

S. pneumoniae 22425 = experiment: Combination Time-kill kinetics; format: cell-based; details: Gatifloxacin alone, 4 × MIC (2 ug/ml)
Experimental: as §1

E. faecalis A6221420 = experiment: Combination Time-kill kinetics; format: cell-based; details: Meropenem alone, 4 × MIC (16 ug/ml)
Experimental: as §1

S. aureus strains = experiment: Checkerboard combination studies of compound G and commercial antibiotics (FIG. 6); format: cell-based; details: in combination with compound G, S. aureus strains tested
Experimental: Checkerboard experiments were performed and analyzed according to standard procedures as outlined below.

CC[C@H]1OC(=O)[C@H](C)[C@@H](O[C@H]2C[C@@](C)(OC)[C@@H](O)[C@H](C)O2)[C@H](C)[C@@H](O[C@@H]2O[C@H](C)C[C@H](N(C)C)[C@H]2O)[C@](C)(O)C[C@@H](C)CN(C)[C@H](C)[C@@H](O)[C@]1(C)O [Azithromycin, reference compound]
effect of compound G on the bactericidal activity (kill kinetics, kill extent) of the antibiotic [1]: no effect | logCFU/ml at Time (hr): 0 (S. pneumoniae 22257): 6.35 logCFU/ml | logCFU/ml at Time (hr): 3 (S. pneumoniae 22257): 4.53 logCFU/ml | logCFU/ml at Time (hr): 6 (S. pneumoniae 22257): 3.39 logCFU/ml | logCFU/ml at Time (hr): 8 (S. pneumoniae 22257): ≤ 1.70* logCFU/ml | logCFU/ml at Time (hr): 24 (S. pneumoniae 22257): ≤ 1.70* logCFU/ml | ΔlogCFU/ml (24-0 hr) (S. pneumoniae 22257): −4.65 logCFU/ml

CO/N=C(\C(=O)N[C@@H]1C(=O)N2C(C(=O)O)=C(COC(N)=O)CS[C@H]12)c1ccco1 [Cefuroxime, reference compound]
effect of compound G on the bactericidal activity (kill kinetics, kill extent) of the antibiotic [1]: no effect | logCFU/ml at Time (hr): 0 (S. pneumoniae 22257): 6.39 logCFU/ml | logCFU/ml at Time (hr): 3 (S. pneumoniae 22257): 1.92 logCFU/ml | logCFU/ml at Time (hr): 6 (S. pneumoniae 22257): 1.70 logCFU/ml | logCFU/ml at Time (hr): 8 (S. pneumoniae 22257): ≤ 1.70* logCFU/ml | logCFU/ml at Time (hr): 24 (S. pneumoniae 22257): ≤ 1.70* logCFU/ml | ΔlogCFU/ml (24-0 hr) (S. pneumoniae 22257): −4.69 logCFU/ml

CN(Cc1cc2ccccc2n1C)C(=O)/C=C/c1ccc(N2C(=O)CCC2=O)nc1 [Example 213, (E)-3-[6-(2,5-Dioxo-pyrrolidin-1-yl)pyridin-3-yl]-N-methyl-N-(1-methyl-1H-indol-2-ylmethyl)acrylamide]
melting point: 185 to 187 °C

CN(Cc1cc2ccccc2n1C)C(=O)/C=C/c1ccc(NC(=O)CCC(N)=O)nc1 [Example 214, (E)-N-(5-{2-[Methyl-(1-methyl-1H-indol-2-ylmethyl)carbamoyl]vinyl}pyridin-2-yl)succinamide]
melting point: 225 to 227 °C

CN1CCN(C(=O)CCC(=O)Nc2ccc(/C=C/C(=O)N(C)Cc3cc4ccccc4n3C)cn2)CC1 [Example 215, (E)-N-(5-{2-[Methyl-(1-methyl-1H-indol-2-Ylmethyl)carbamoyl]vinyl}pyridin-2-yl)-4-(4-methyl-piperazin-1-yl)-4-oxo-butyramide]
melting point: 145 to 147 °C (dec.)

CN(Cc1cc2ccccc2n1C)C(=O)/C=C/c1ccc(NC(=O)CCC(=O)N2CCOCC2)nc1 [Example 216, (E)-N-(5-{2-[Methyl-(1-methyl-1H-indol-2-ylmethyl)carbamoyl]vinyl}pyridin-2-yl)-4-morpholin-4-yl-4-oxo-butyramide]
melting point: 206 to 209 °C (dec.)

COc1c(N2CCNC(C)C2)c(F)cc2c(=O)c(C(=O)O)cn(C3CC3)c12 (stereo not drawn) [Gatifloxacin, reference compound]
bactericidal activity, log reduction in CFU at 24 hours ([1]; antibiotic alone, S. pneumoniae 22425, 24 hours, FIG. 8): −3.5 log | effect of compound G on the bactericidal activity (kill kinetics, kill extent) of the antibiotic [1]: no effect | logCFU/ml at Time (hr): 0 (S. pneumoniae 22425): 5.18 logCFU/ml | logCFU/ml at Time (hr): 2 (S. pneumoniae 22425): 4.26 logCFU/ml | logCFU/ml at Time (hr): 6 (S. pneumoniae 22425): 2.77 logCFU/ml | logCFU/ml at Time (hr): 24 (S. pneumoniae 22425): ≤ 1.70* logCFU/ml | ΔlogCFU/ml (24-0 hr) (S. pneumoniae 22425): −3.48 logCFU/ml

C[C@@H](O)[C@H]1C(=O)N2C(C(=O)O)=C(S[C@@H]3CN[C@H](C(=O)N(C)C)C3)[C@H](C)[C@H]12 [Meropenem, reference compound]
logCFU/ml at Time (hr): 0 (E. faecalis A6221420): 5.12 logCFU/ml | logCFU/ml at Time (hr): 2 (E. faecalis A6221420): 4.31 logCFU/ml | logCFU/ml at Time (hr): 4 (E. faecalis A6221420): 3.41 logCFU/ml | logCFU/ml at Time (hr): 8 (E. faecalis A6221420): 2.67 logCFU/ml | logCFU/ml at Time (hr): 24 (E. faecalis A6221420): ≤ 1.70* logCFU/ml | ΔlogCFU/ml (24-0 hr) (E. faecalis A6221420): −3.43 logCFU/ml

CC(=O)NC[C@H]1CN(c2ccc(N3CCOCC3)c(F)c2)C(=O)O1 [linezolid]
combination effect with compound G (synergistic / additive / antagonism) (S. aureus strains): synergistic effect

Gentamicin
combination effect with compound G (synergistic / additive / antagonism) (S. aureus strains): synergistic effect
